Measured values published in patent US20130224239A1, “ALCOHOLIC EXTRACT OF FUNGI OF GENUS […] AND USE THEREOF” (KING SAUD UNIVERSITY, priority 2011, published 2013).
Converted amounts (≈) assume the structure as drawn. Like-named read-outs stand apart in the source and are kept apart here.

Columns and labels:
Format in all cases: cell-based
[1] = tested on: Salmonella typhimuium (RCMB 0104); test: Antimicrobial screening, disc diffusion; settings: Salmonella typhimuim; compounds isolated from Cunninghamella elegans
Procedure: (§1) The alcoholic extracts obtained were used for testing their antimicrobial activity. Each extract (0.5 g) was dissolved in 10 ml water. Same concentrations for the successive extracts (using diethyl ether, chloroform, ethyl acetate and n-butanol) were also prepared.
(§2) The representatives of Gram negative bacteria, namely Salmonella typhimuium (RCMB 0104), Escherichia coli (RCMB 0103), Pseudomonas aeruginosa (RCMB 0102) and Gram positive bacteria, namely Bacillus subtilis (RCMB 0107), Staphylococcus aureus (RCMB 0106), Streptococcus pyogenes (RCMB 0109), unicellular fungi, namely Candida albicans (RCMB 5002) and filamentous fungi, namely Aspergillus fumigatus (RCMB 2003) and Penicllium expansum (RCMB 1006) were used as test organisms (RCMB: The Regional Center for Mycology and Biotechnology, Al-azhar University Nasser City, Cairo, Egypt).
(§3) For antimicrobial screening the well known disc diffusion and agar well diffusion methods were used, together with the determination of minimum inhibitory concentration (MIC), see Duguid et al., Microbial Infections, The English Language Book Society, Churchill Livingston, Edingburgh, London, 1978; vol. 1, page 110.
Disc diffusion method: The agar disc diffusion method is employed for the determination of antimicrobial activities of the extracts of the investigated fungal species. Sterilized paper discs (Whatman No. 1) ([…]) were separately soaked in the extracts and transferred onto the surface of growth media seeded with the test organism. After incubation period, following suitable conditions for the test organism, the diameter of the inhibition zone around the discs was measured in millimeters.
Each fungal species was grown on malt extract media at 28±2° C. for 14 days. The metabolites of the fungal species were screened for antimicrobial activity.

Staphylococcus aureus = test: Minimum inhibitory concentration, agar well diffusion; settings: for MIC: read-out: Minimum inhibitory concentration
Excerpt: as §3
Agar well diffusion method: On the other hand, the agar well diffusion method was employed for determination of the minimum inhibitory concentration (MIC). The test organisms were separately seeded in the agar medium. The wells (10 mm in diameter) were cut from the agar and […] (different concentrations) was transferred into them. After incubation period, following suitable conditions for the test organism, the diameter of the inhibition zone around the discs was measured in millimeters. The obtained result was the mean of three experiments.
The minimum inhibitory concentration (MIC) of Cunninghamella blakesleeana, C. elegans, C. homothallica and successive extracts and isolated compounds of Cunninghamella elegans against Staphylococcus aureus was determined.
Minimum inhibitory concentration (MIC): The lowest concentration of an antimicrobial agent that will inhibit a visible growth of a microorganism after overnight incubation.

[2] = tested on: Bacillus subtilis (RCMB 0107); test: Antimicrobial screening, disc diffusion; settings: compounds isolated from Cunninghamella elegans
Procedure: as §1, §2, §3
(§4) Disc diffusion method: The agar disc diffusion method is employed for the determination of antimicrobial activities of the extracts of the investigated fungal species. Sterilized paper discs (Whatman No. 1) ([…]) were separately soaked in the extracts and transferred onto the surface of growth media seeded with the test organism. After incubation period, following suitable conditions for the test organism, the diameter of the inhibition zone around the discs was measured in millimeters. The obtained result was the mean of three experiments.
(§5) Each fungal species was grown on malt extract media at 28±2° C. for 14 days. The metabolites of the fungal species were screened for antimicrobial activity. The inhibition zones around each disc were measured, in millimeter, and recorded (Tables 1).

[3] = tested on: Pseudomonas aeruginosa (RCMB 0102); test: Antimicrobial screening, disc diffusion; settings: Pseudomonas aeurginosa; compounds isolated from Cunninghamella elegans
Procedure: as §1, §2, §3, §4, §5

[4] = tested on: Staphylococcus aureus (RCMB 0106); test: Antimicrobial screening, disc diffusion; settings: compounds isolated from Cunninghamella elegans
Procedure: as §1, §2, §3, §4, §5

[5] = tested on: Aspergillus fumigatus (RCMB 2003); test: Antimicrobial screening, disc diffusion; settings: compounds isolated from Cunninghamella elegans
Procedure: as §1, §2, §3, §4, §5

[6] = tested on: Candida albicans (RCMB 5002); test: Antimicrobial screening, disc diffusion; settings: compounds isolated from Cunninghamella elegans
Procedure: as §1, §2, §3, §4, §5

[7] = tested on: Streptococcus pyogenes (RCMB 0109); test: Antimicrobial screening, disc diffusion; settings: compounds isolated from Cunninghamella elegans
Procedure: as §1, §2, §3, §4, §5

[8] = tested on: Escherichia coli (RCMB 0103); test: Antimicrobial screening, disc diffusion; settings: compounds isolated from Cunninghamella elegans
Procedure: as §1, §2, §3, §4, §5

[9] = tested on: Penicllium expansum (RCMB 1006); test: Antimicrobial screening, disc diffusion; settings: Penicillium expansum; compounds isolated from Cunninghamella elegans
Procedure: as §1, §2, §3, §4, §5

SMILES | Diameter of inhibition zone [1] | MIC (Staphylococcus aureus; against Staphylococcus aureus) | Diameter of inhibition zone [2] | Diameter of inhibition zone [3] | Diameter of inhibition zone [4] | Diameter of inhibition zone [5] | Diameter of inhibition zone [6] | Diameter of inhibition zone [7] | Diameter of inhibition zone [8] | Diameter of inhibition zone [9] | Minimum inhibitory concentration (Staphylococcus aureus; against Staphylococcus aureus) | MIC (Staphylococcus aureus; Staphylococcus aureus)
C=C(CC(=O)O)C(=O)OC [Compound 8, 3-(methoxycarbonyl)-but-3-enoic acid] | 00.0 mm | 210 µg/mL (≈ 1460 µM) | 00.0 mm | 00.0 mm | 07.0 ± 0.5 mm | 00.0 mm | 00.0 mm | 00.0 mm | 00.0 mm | 00.0 mm |  | 
O=C(O)c1cc(O)c(O)c(O)c1 [Compound 7, 3,4,5-trihydroxy-benzoic acid] |  | 130 µg/mL (≈ 764 µM) | 00.0 mm | 00.0 mm | 05.0 ± 0.5 mm | 00.0 mm | 00.0 mm | 00.0 mm | 00.0 mm | 00.0 mm |  | 
O=c1ccn([C@@H]2O[C@H](CO)[C@@H](O)[C@H]2O)c(=O)[nH]1 [Compound 5, pyrimidine-2,4-dion, 1-ribose] | 00.0 mm |  | 00.0 mm | 00.0 mm | 11.0 ± 0.1 mm | 00.0 mm | 00.0 mm | 00.0 mm | 00.0 mm | 00.0 mm | 150 µg/mL (≈ 614 µM) | 
CN[C@H](CC(C)C)C(=O)N[C@H]1C(=O)N[C@@H](CC(N)=O)C(=O)N[C@H]2C(=O)N[C@H]3C(=O)N[C@H](C(=O)N[C@H](C(=O)O)c4cc(O)cc(O)c4-c4cc3ccc4O)[C@H](O)c3ccc(c(Cl)c3)Oc3cc2cc(c3O[C@@H]2O[C@H](CO)[C@@H](O)[C@H](O)[C@H]2O[C@H]2C[C@](C)(N)[C@H](O)[C@H](C)O2)Oc2ccc(cc2Cl)[C@H]1O [Vancomycin, reference compound] |  |  |  |  |  |  |  |  |  |  |  | 0.75 µg/mL (≈ 0.518 µM)
